{"source": "patent US20250236589A1", "about": "“THERAPEUTIC PHENETHYLAMINE COMPOSITIONS AND METHODS OF USE” (Cybin IRL Limited, priority 2022, published 2025)", "key": {"[1]": {"assay": "In vitro liver microsome stability (MsLM)", "format": "in vitro ADME", "conditions": "mouse, mouse liver microsomes, 0.5 mg/mL microsomes, NADPH, read-out: MsLM, t1/2", "protocol": "In vitro stability was determined in Human (HLM), Rat (RLM), Mouse (MsLM), and dog (DLM) Liver Microsomes. All liver microsomes were purchased from a commercial supplier (e.g. XenoTech). The reaction mixture, minus NADPH, was prepared as described below. The test compound was added into the reaction mixture at a final concentration of 1 μM or co-dosed with their deuterated analog(s) at 1 μM each. The control compound, testosterone, was run simultaneously with the test compound in a separate reaction. The reaction mixture (without cofactor) was equilibrated in a shaking water bath at 37° C. for 5 minutes. The reaction was initiated by the addition of the cofactor, and the mixture was incubated in a shaking water bath at 37° C. Aliquots (150 μL) were withdrawn at 0, 5, 10, 20, 30, 60, and 120 minutes. Test compound and testosterone samples were immediately combined with 150 μL of ice-cold acetonitrile (ACN) containing 0.1% formic acid and internal standard to terminate the reaction. The samples were then mixed and centrifuged to precipitate proteins. All samples were assayed by LC-MS/MS using electrospray ionization. […] Half-lives were calculated using GraphPad software, fitting to a single-phase exponential decay equation."}, "human alpha2A receptor": {"target": "human alpha2A receptor (Homo sapiens (Human), UniProt P08913)", "sequence (P08913 whole entry)": "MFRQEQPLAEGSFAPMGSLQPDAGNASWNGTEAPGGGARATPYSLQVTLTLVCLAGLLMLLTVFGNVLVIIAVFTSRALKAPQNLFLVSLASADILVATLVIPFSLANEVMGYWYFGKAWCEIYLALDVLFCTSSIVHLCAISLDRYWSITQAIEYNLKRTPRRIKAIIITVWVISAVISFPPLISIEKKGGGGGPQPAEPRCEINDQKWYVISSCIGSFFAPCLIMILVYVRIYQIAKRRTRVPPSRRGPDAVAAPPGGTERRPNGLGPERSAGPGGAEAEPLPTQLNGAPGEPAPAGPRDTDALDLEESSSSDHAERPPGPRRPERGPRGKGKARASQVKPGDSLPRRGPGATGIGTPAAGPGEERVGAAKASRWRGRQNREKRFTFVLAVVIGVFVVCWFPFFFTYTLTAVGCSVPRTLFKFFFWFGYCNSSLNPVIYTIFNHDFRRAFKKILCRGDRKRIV", "assay": "alpha2A receptor binding ([3H]rauwolscine)"}, "[2]": {"system": "Adrenergic α2 (subtype not identified) (rat cortex)", "assay": "Off-target screen, radioligand displacement at 10 μM", "format": "binding", "conditions": "antagonist radioligand"}, "Brain protein binding": {"assay": "Brain protein binding", "format": "in vitro ADME", "conditions": "dilute brain homogenate", "excerpt": "The CSF concentrations were only 20% of that found in plasma. Concomitantly CSF concentrations were 1.6% of brain concentrations. The CSF/brain ratio corroborates brain protein binding experiments in which the free fraction of compound I-1 in dilute brain homogenate was 1.4%."}, "[3]": {"assay": "PK in Sprague-Dawley rats (plasma, brain, CSF)", "format": "in vivo, rat", "protocol": "In another rat PK study, plasma, brain, and cerebrospinal fluid (CSF) distribution of I-1 was evaluated in Sprague-Dawley male rats after intravenous (IV) administration at 1 mg/kg. Plasma, brain, and CSF samples were collected at specified time points up to 8 hr postdose after single dose administration of I-1. Blood samples were collected via cardiac puncture and the animals were euthanized via CO2 inhalation after blood samples were collected. The CSF samples were collected via cisterna magna puncture with the brain tissue extracted after decapitation (N=4 animals per time point). The concentrations of compound I-1 in plasma, with K2EDTA as the anticoagulant, brain tissue, and CSF were determined by LC-MS/MS (LLOQ, 0.3 ng/mL). PK parameters for plasma, CSF, and brain tissue were calculated as described above."}, "[4]": {"conditions": "male, Sprague-Dawley, rat, CSF, IV 1 mg/kg"}, "[5]": {"conditions": "male, Sprague-Dawley, rat, brain, IV 1 mg/kg"}, "[6]": {"conditions": "male, Sprague-Dawley, rat, plasma, IV 1 mg/kg"}}, "data": [{"compound": "COc1cc(SC(F)(F)F)c(OC)cc1CCN", "note": "[Compound I-1, 2-(2,5-dimethoxy-4-((trifluoromethyl)thio)phenyl)ethan-1-amine]", "values": [{"measurement": "half-life at 1 μM", "setting": "[1]", "result": "> 2", "unit": "h"}, {"measurement": "Ki", "setting": "human alpha2A receptor", "result": 66, "unit": "nM"}, {"measurement": "inhibition at 10 µM", "setting": "[2]", "result": 97.3, "unit": "%"}, {"measurement": "fraction unbound", "setting": "Brain protein binding", "result": 0.014}, {"measurement": "Tlast", "setting": "[3]; CSF, IV 1 mg/kg", "result": 6, "unit": "h"}, {"measurement": "CSF concentrations as share of brain concentrations", "setting": "[3]; IV 1 mg/kg", "result": 1.6, "unit": "%"}, {"measurement": "Tlast", "setting": "[3]; brain, IV 1 mg/kg", "result": 8, "unit": "h"}, {"measurement": "total systemic clearance relative to total hepatic blood flow", "setting": "[3]; hepatic blood flow 3.31 L/hr/kg", "result": "approximately 1.4 fold"}, {"measurement": "Kp", "setting": "[3]; male, Sprague-Dawley, rat, CSF/plasma, IV 1 mg/kg, read-out: CSF concentrations as share of plasma", "result": 0.2}, {"measurement": "AUC(0-inf)", "setting": "[3]; [4]", "result": 51.4, "unit": "ng·h/mL"}, {"measurement": "AUC(0-t)", "setting": "[3]; [4]", "result": 49.9, "unit": "ng·h/mL"}, {"measurement": "Cmax", "setting": "[3]; [4]", "result": 48.7, "unit": "ng/mL"}, {"measurement": "MRT inf", "setting": "[3]; [4]", "result": 1.51, "unit": "h"}, {"measurement": "Tmax", "setting": "[3]; [4]", "result": 0.083, "unit": "h"}, {"measurement": "half-life", "setting": "[3]; [4]", "result": 1.26, "unit": "h"}, {"measurement": "AUC(0-inf)", "setting": "[3]; [5]", "result": 3280, "unit": "ng·h/mL"}, {"measurement": "AUC(0-t)", "setting": "[3]; [5]", "result": 3220, "unit": "ng·h/mL"}, {"measurement": "Cmax", "setting": "[3]; [5]", "result": 1490, "unit": "ng/mL"}, {"measurement": "MRT inf", "setting": "[3]; [5]", "result": 1.98, "unit": "h"}, {"measurement": "Tmax", "setting": "[3]; [5]", "result": 0.25, "unit": "h"}, {"measurement": "half-life", "setting": "[3]; [5]", "result": 1.34, "unit": "h"}, {"measurement": "AUC(0-inf)", "setting": "[3]; [6]", "result": 210, "unit": "ng·h/mL"}, {"measurement": "AUC(0-t)", "setting": "[3]; [6]", "result": 207, "unit": "ng·h/mL"}, {"measurement": "C0", "setting": "[3]; [6]", "result": 330, "unit": "ng/mL"}, {"measurement": "Cmax", "setting": "[3]; [6]", "result": 250, "unit": "ng/mL"}, {"measurement": "MRT inf", "setting": "[3]; [6]", "result": 1.19, "unit": "h"}, {"measurement": "Tmax", "setting": "[3]; [6]", "result": 0.083, "unit": "h"}, {"measurement": "clearance", "setting": "[3]; [6]", "result": 79.5, "unit": "mL/min/kg"}, {"measurement": "half-life", "setting": "[3]; [6]", "result": 1.53, "unit": "h"}, {"measurement": "Vd", "setting": "[3]; male, Sprague-Dawley, rat, plasma, IV 1 mg/kg, read-out: Vss", "result": 5.67, "unit": "L/kg"}, {"measurement": "Tlast", "setting": "[3]; plasma, IV 1 mg/kg", "result": 8, "unit": "h"}, {"measurement": "volume of distribution relative to total body water", "setting": "[3]; total body water 0.7 L/kg", "result": "approximately 8.1 fold"}]}]}
